{
  "source": "patent US20140221301A1",
  "about": "“COMBINATION TREATMENT FOR CANCER” (priority 2011, published 2014)",
  "key": {"TEX cells": {"tested_on": "TEX cells", "experiment": "ROS generation (DCF-DA, DHE) in TEX cells", "format": "cell-based, human", "conditions": "time-points up to 24 hours", "experimental": "FIG. 4. […] (A) Cells from TEX, OCI-AML2 and two primary AML patients were treated with increasing concentrations (2.5 μM and 5 μM) of tigecycline for 36 and 48 hours of tigecycline. Total proteins were extracted and analyzed by western blotting for Cox-1, Cox-2, Cox-4, grp78, XIAP, actin and tubulin. (B) TEX and AML patient cells were treated with increasing concentrations (2.5 μM and 5 μM) of tigecycline. Cox-1, Cox-2, and Cox-4 mRNA expression relative 18S was determined by quantitative RT-PCR. Data is shown as mean±SD. (C) TEX cells were treated with increasing concentrations of tigecycline and chloramphenicol (CAP) for 72 hours. Complex I, II and IV enzyme activity relative to citrate synthase activity was determined as described in materials and methods. (D) Cells from TEX, primary AML patients, and normal donors were treated with increasing concentrations of tigecycline. Mitochondrial membrane potential (ΔΨ) was determined by staining cells with JC-1 dye, and flow cytometry analysis (Red/Green ratio). Reactive oxygen species generation (ROS) was determined by staining with h2-DCFDA and Dihydroethidium (DHE).\nA byproduct of the mitochondrial enzyme activities of the electron transport chain is the generation of reactive oxygen species (ROS). […] Therefore, the role of tigecycline on ROS generation in leukemia cells by analyzing hydrogen peroxide ions (H2O2) using a dichlorofluorescein dye (DCF-DA), and superoxide anions using dihydroethidium (DHE) was examined."}, "[1]": {"tested_on": "primary normal hematopoietic cells (PBSC)", "experiment": "Cell viability by Annexin V staining, primary normal hematopoietic cells", "format": "cell-based, human", "conditions": "n=5, 48 hours", "experimental": "FIG. 2. Tigecycline induces cell death and inhibits clonogenic growth in primary AML cells preferential over normal hematopoietic cells. Mononuclear cells from peripheral blood of leukemia patients (blast count>80%) and normal G-CSF expanded donors was treated with increasing concentrations of tigecycline for 48 hours. Cell viability was measured by Annexin-PI flow cytometry staining. Cell viability is expressed as a mean percentage plus or minus SD (n=3) relative to DMSO-treated cells. Mononuclear cells from primary AML patient samples (A, B) and normal peripheral blood cells (C) were plated in methylcelluose with 5 μM of Tigecycline. (D) Colony forming units were counted at 7 days (AML) and 14 days (Normal) post plating. […]\n(§1) Cell growth and viability was assessed by the MTS assay (Promega, Madison, Wis.) according to the manufacturer's instructions. Apoptosis and cell death was measured by Annexin V-fluroscein isothiocyanate (FITC; Biovision Research Products, Mountain View, Calif.), propidium iodide staining and flow cytometry according to the manufacturer's instructions and as previously described^30.\nGiven the cytotoxicity of tigecycline towards leukemia cell lines, the ability of tigecycline to induce cell death in primary acute myeloid leukemia (AML) patient samples and normal hematopoietic cells was compared and evaluated. […]"}, "myeloma cell lines": {"tested_on": "myeloma cell lines", "experiment": "Cell growth and viability, MTS assay, myeloma cell lines", "format": "cell-based", "conditions": "72 hours", "experimental": "FIG. 1. […] (A) TEX and (B) M9-ENL1 cells were plated in 96-well plates and drugs were added to the wells (5 μL per well) for final concentrations of 10 μM (shown) and 1 μM. Cell growth and viability was measured at 48 hours (M9-ENL-1) and 72 hours (TEX) by MTS assay. Cell viability is shown for each compound as a percent of cells treated with DMSO alone. (C) Leukemia, (D) myeloma, and (E) solid tumor cell lines were seeded in 96-well plates and then treated with increasing concentrations of tigecycline. Cell growth and viability was measured at 72 hours by MTS assay. Cell viability is expressed as mean percentage plus or minus SD (n=3) relative to vehicle-treated cells. […] Cell viability was measured at 72 hours by MTS assay. Cell viability is expressed as mean percentage plus or minus SD (n=3) relative to vehicle-treated cells.\nHuman leukemia (OCI-AML2, HL60, U937) cell lines were maintained in RPMI 1640 medium. Myeloma (LP-1, KMS11, 8226, JJN3, OP-M2) cell lines were maintained in Iscove's media. […]\nas §1"}, "Complexes I and IV": {"tested_on": "Complexes I and IV", "experiment": "Respiratory chain enzyme activity relative to citrate synthase, Complexes I and IV", "format": "cell-based, human", "conditions": "TEX cells, 2.5 μM and 5 μM, 72 hours", "experimental": "FIG. 4. Tigecycline decreases mitochondrial Cox-1 protein levels in TEX cells. (A) Cells from TEX, OCI-AML2 and two primary AML patients were treated with increasing concentrations (2.5 μM and 5 μM) of tigecycline for 36 and 48 hours of tigecycline. Total proteins were extracted and analyzed by western blotting for Cox-1, Cox-2, Cox-4, grp78, XIAP, actin and tubulin. (B) TEX and AML patient cells were treated with increasing concentrations (2.5 μM and 5 μM) of tigecycline. Cox-1, Cox-2, and Cox-4 mRNA expression relative 18S was determined by quantitative RT-PCR. Data is shown as mean±SD. (C) TEX cells were treated with increasing concentrations of tigecycline and chloramphenicol (CAP) for 72 hours. Complex I, II and IV enzyme activity relative to citrate synthase activity was determined as described in materials and methods. […] Mitochondrial membrane potential (ΔΨ) was determined by staining cells with JC-1 dye, and flow cytometry analysis (Red/Green ratio). Reactive oxygen species generation (ROS) was determined by staining with h2-DCFDA and Dihydroethidium (DHE).\nThe effect of tigecycline treatment on enzyme activity of the respiratory chain complexes relative to the mitochondrial non-respiratory chain enzyme citrate synthase was examined. TEX leukemia cells were treated with tigecycline for […] and then respiratory chain enzyme relative to citrate synthase activity was analyzed. […]"}},
  "data": [
    {"compound": "CN(C)c1cc(NC(=O)CNC(C)(C)C)c(O)c2c1C[C@H]1C[C@H]3[C@H](N(C)C)C(O)=C(C(N)=O)C(=O)[C@@]3(O)C(O)=C1C2=O", "note": "[tigecycline]", "values": [
      {"measurement": "ROS generation", "setting": "TEX cells", "result": "no observed increase"},
      {"measurement": "LD50", "setting": "[1]", "result": "> 10", "unit": "µM"},
      {"measurement": "IC50", "setting": "myeloma cell lines", "result": "> 10", "unit": "µM"},
      {"measurement": "enzyme activities of Complexes I and IV relative to citrate synthase", "setting": "Complexes I and IV", "result": "decreased"}
    ]}
  ]
}
